Results from patent US12421276B2 (priority 2016, dated 2025).
Several values for one entry are separate records, joined by “and”; a condition that tells them apart may be missing. Equal entries are not always repeated. Where two headings read alike, the source gives them in different places.

Assays:
[1] = Plasma stability study, rat plasma; format: in vitro ADME; conditions: Rat plasma, 1 μM, 37° C.
How it was run: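 Compounds (1 μM, from 0.3 mM DMSO stock) incubated at 37° C in K2 EDTA plasma, quenched at time points with acetonitrile/methanol/formic acid plus internal standard, and analysed by LC/MS/MS. Disappearance measured relative to 0-min control; t½ derived from elimination rate constant of semi-log % remaining versus time regression.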

[2] = Metabolic stability in simulated gastric fluid (SGF), pH 1.2, with or without pepsin; format: in vitro ADME; conditions: 5 μM, 37° C.
How it was run: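 Compound at 5 μM incubated at 37 °C in SGF (34.2 mM NaCl, pH 1.2) without or with 0.32% pepsin; acetonitrile/formic acid quench at time points, LC/MS/MS. Disappearance relative to 0-min; t½ from elimination rate constant of semi-log % remaining vs time.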

[3] = format: in vivo, rat
How it was run: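 Male SD rats (n=4/group) dosed PO at 13.2 or 14.2 mg/kg (10 mL/kg) and housed in metabolic cages with daily urine collection. EDTA blood sampled predose to 24 h post-dose, centrifuged at 4 °C to plasma, analysed by LC-MS.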

[4] = test system: Caco-2 cells; assay: Caco-2 permeability study with or without P-gp inhibitor GF120918; conditions: for Abs. Quotient: (Papp A-B with inhibitor − without inhibitor)/Papp A-B with inhibitor; for Caco-2 Cells Permeability Recovery Rate: 1 hr, pH 7.4
[5] = Rat, PO, 10 mg/kg equiv., n = 4, analyte: Parent (BASE STRUCTURE)
[6] = Rat, PO, 10 mg/kg equiv., n = 4, analyte: Prodrug
[7] = rat, dosed as prodrug, 10 mg/kg equivalent of Base Structure, analyte Parent (Base Structure), Average
[8] = rat, dosed as prodrug, 10 mg/kg equivalent of Base Structure, analyte Parent (Base Structure), Combined (average ± std. dev.)
[9] = rat, dosed as prodrug, 10 mg/kg equivalent of Base Structure, analyte Parent (Base Structure), individual animals
[10] = rat, dosed as prodrug, 10 mg/kg equivalent of Base Structure, analyte Parent (Base Structure), individual animals, 10 mg/kg
[11] = rat, dosed as prodrug, 10 mg/kg equivalent of Base Structure, analyte Prodrug, Average
[12] = rat, dosed as prodrug, 10 mg/kg equivalent of Base Structure, analyte Prodrug, Combined (average ± std. dev.)
[13] = rat, dosed as prodrug, 10 mg/kg equivalent of Base Structure, analyte Prodrug, individual animals
[14] = +GF120918 (10 μM), 10 μM compound
[15] = rat, dosed as prodrug, 10 mg/kg equivalent of Base Structure, analyte Prodrug, individual animals, 10 mg/kg

CCCCCC(=O)NC(Cc1ccc(OC(=O)N2CCN(C)CC2)cc1)C(=O)NC(C(=O)NCCCCCC(N)=O)C(C)CC (centres unmarked) [Compound A20]
Plasma Stability Half-Life [1]: 2.617 h
Plasma Stability (% Parent Remaining) 0 min [1]: 100%
Plasma Stability (% Parent Remaining) 60 min [1]: 73%
Plasma Stability (% Parent Remaining) 120 min [1]: 56%
Plasma Stability (% Parent Remaining) 240 min [1]: 34%
SGF Stability (pH 1.2) Half-Life (min) ([2]; +Pepsin (0.32%)): 84.5 min
SGF Stability (pH 1.2) 0 min ([2]; +Pepsin (0.32%)): 100%
SGF Stability (pH 1.2) 60 min ([2]; +Pepsin (0.32%)): 57%
SGF Stability (pH 1.2) 120 min ([2]; +Pepsin (0.32%)): 37%
SGF Stability (pH 1.2) 240 min ([2]; +Pepsin (0.32%)): 26%
SGF Stability (pH 1.2) Half-Life (min) ([2]; −Pepsin): 116.5 min
SGF Stability (pH 1.2) 0 min ([2]; −Pepsin): 100%
SGF Stability (pH 1.2) 60 min ([2]; −Pepsin): 70%
SGF Stability (pH 1.2) 120 min ([2]; −Pepsin): 57%
SGF Stability (pH 1.2) 240 min ([2]; −Pepsin): 60%
AUC0-24 (ng · h/mL) [3, 5]: 0.8 ± 1^ ng · h/mL
AUC0-inf [3, 5]: 1.61 ng·h/mL
Cmax [3, 5]: 1.7 ± 1.3 ng/mL
Tmax (h) [3, 5]: 0.3 ± 0^ h
half-life [3, 5]: 0.17 h
Tmax [3, 6]: 0 h
AUC 0-inf_obs [3, 7]: 1.611 ng·h/mL
AUC 0-t [3, 7]: 0.8309 ng·h/mL
AUMC 0-inf_obs [3, 7]: 0.6699 ng/ml * h^2
Cl/F_obs [3, 7]: 6.207 (mg/kg)/(ng/ml)/h
Cmax [3, 7]: 1.7125 ng/mL
Lambda_z [3, 7]: 4.022 h⁻¹
MRT 0-inf_obs [3, 7]: 0.4158 h
Tlag [3, 7]: 0 h
Tmax [3, 7]: 0.25 h
Vz/F_obs [3, 7]: 1.543 (mg/kg)/(ng/ml)
t1/2 [3, 7]: 0.1723 h
AUC 0-inf_obs [3, 8]: 1.611 ng·h/mL
AUC 0-t [3, 8]: 0.8 ± 1 ng·h/mL
AUMC 0-inf_obs [3, 8]: 0.6699 ng/ml * h^2
Cl/F_obs [3, 8]: 6.207 (mg/kg)/(ng/ml)/h
Cmax [3, 8]: 1.7 ± 1.3 ng/mL
Lambda_z [3, 8]: 4.022 h⁻¹
MRT 0-inf_obs [3, 8]: 0.4158 h
Tlag [3, 8]: 0 ± 0 h
Tmax [3, 8]: 0.3 ± 0 h
Vz/F_obs [3, 8]: 1.543 (mg/kg)/(ng/ml)
t1/2 [3, 8]: 0.1723 h
AUC 0-inf_obs [3, 9]: 1.611 ng·h/mL
AUMC 0-inf_obs [3, 9]: 0.6699 ng/ml * h^2
Cl/F_obs [3, 9]: 6.207 (mg/kg)/(ng/ml)/h
Lambda_z [3, 9]: 4.022 h⁻¹
MRT 0-inf_obs [3, 9]: 0.4158 h
Tlag [3, 9]: 0 h
Tmax [3, 9]: 0.25 h
Vz/F_obs [3, 9]: 1.543 (mg/kg)/(ng/ml)
t1/2 [3, 9]: 0.1723 h
AUC 0-t [3, 10]: 0.08927 ng·h/mL and 1.5726 ng·h/mL
Cmax [3, 10]: 0.765 ng/mL and 2.66 ng/mL
AUMC 0-inf_obs [3, 11]: 0 ng/ml * h^2
Cl/F_obs [3, 11]: 0 (mg/kg)/(ng/ml)/h
Lambda_z [3, 11]: 0 h⁻¹
Tlag [3, 11]: 0 h
Tmax [3, 11]: 0 h
Vz/F_obs [3, 11]: 0 (mg/kg)/(ng/ml)
AUMC 0-inf_obs [3, 12]: 0 ng/ml * h^2
Cl/F_obs [3, 12]: 0 (mg/kg)/(ng/ml)/h
Lambda_z [3, 12]: 0 h⁻¹
Tlag [3, 12]: 0 h
Tmax [3, 12]: 0 h
Vz/F_obs [3, 12]: 0 (mg/kg)/(ng/ml)
AUMC 0-inf_obs [3, 13]: 0 ng/ml * h^2
Cl/F_obs [3, 13]: 0 (mg/kg)/(ng/ml)/h
Lambda_z [3, 13]: 0 h⁻¹
Tlag [3, 13]: 0 h
Tmax [3, 13]: 0 h
Vz/F_obs [3, 13]: 0 (mg/kg)/(ng/ml)
Abs. Quotient [4]: 0.88
Caco-2 Cells Permeability Recovery Rate [4, 14]: 90%
Caco-2 Cells Permeability Recovery Rate ([4]; −GF120918, 10 μM compound): 71%

CCCCCC(=O)NC(Cc1ccc(OC(=O)NCCN(C)C)cc1)C(=O)NC(C(=O)NCCCCCC(N)=O)C(C)CC (centres unmarked) [Compound A21]
Plasma Stability Half-Life [1]: 1.16 h
Plasma Stability (% Parent Remaining) 0 min [1]: 100%
Plasma Stability (% Parent Remaining) 60 min [1]: 61%
Plasma Stability (% Parent Remaining) 120 min [1]: 34%
Plasma Stability (% Parent Remaining) 240 min [1]: 9%
SGF Stability (pH 1.2) Half-Life (min) ([2]; +Pepsin (0.32%)): 265.1 min
SGF Stability (pH 1.2) 0 min ([2]; +Pepsin (0.32%)): 100%
SGF Stability (pH 1.2) 60 min ([2]; +Pepsin (0.32%)): 87%
SGF Stability (pH 1.2) 120 min ([2]; +Pepsin (0.32%)): 74%
SGF Stability (pH 1.2) 240 min ([2]; +Pepsin (0.32%)): 54%
AUC0-24 [3, 5]: 7.4 ± 0.9 ng·h/mL
AUC0-inf [3, 5]: 47.8 ± 1 ng·h/mL
Cmax [3, 5]: 0.6 ± 0.1 ng/mL
Tmax [3, 5]: 0.9 ± 0.8 h
half-life [3, 5]: 81.7 ± 5.7 h
AUC0-24 [3, 6]: 2.8 ± 1.9 ng·h/mL
AUC0-inf [3, 6]: 6.46 ng·h/mL
Cmax [3, 6]: 1.6 ± 0.5 ng/mL
Tmax [3, 6]: 0.8 ± 0.4 h
half-life [3, 6]: 1.32 h
AUC 0-inf_obs [3, 7]: 47.78 ng·h/mL
AUC 0-t [3, 7]: 7.45 ng·h/mL
AUMC 0-inf_obs [3, 7]: 5777.4305 ng/ml * h^2
Cl/F_obs [3, 7]: 0.2094 (mg/kg)/(ng/ml)/h
Cmax [3, 7]: 0.62 ng/mL
Lambda_z [3, 7]: 0.008507 h⁻¹
MRT 0-inf_obs [3, 7]: 120.8 h
Tlag [3, 7]: 0 h
Tmax [3, 7]: 0.875 h
Vz/F_obs [3, 7]: 24.65 (mg/kg)/(ng/ml)
t1/2 [3, 7]: 81.6756 h
AUC 0-inf_obs [3, 8]: 47.8 ± 1 ng·h/mL
AUC 0-t [3, 8]: 7.4 ± 0.9 ng·h/mL
AUMC 0-inf_obs [3, 8]: 5777.4 ± 551.6 ng/ml * h^2
Cl/F_obs [3, 8]: 0.2 ± 0 (mg/kg)/(ng/ml)/h
Cmax [3, 8]: 0.6 ± 0.1 ng/mL
Lambda_z [3, 8]: 0 ± 0 h⁻¹
MRT 0-inf_obs [3, 8]: 120.8 ± 9.1 h
Tlag [3, 8]: 0 ± 0 h
Tmax [3, 8]: 0.9 ± 0.8 h
Vz/F_obs [3, 8]: 24.7 ± 1.2 (mg/kg)/(ng/ml)
t1/2 [3, 8]: 81.7 ± 5.7 h
Tlag [3, 9]: 0 h
AUC 0-inf_obs [3, 10]: 48.45 ng·h/mL and 47.1 ng·h/mL
AUC 0-t [3, 10]: 7.285 ng·h/mL and 8.222 ng·h/mL and 6.27 ng·h/mL and 8.022 ng·h/mL
AUMC 0-inf_obs [3, 10]: 6167.4557 ng/ml * h^2 and 5387.4053 ng/ml * h^2
Cl/F_obs [3, 10]: 0.2064 (mg/kg)/(ng/ml)/h and 0.2123 (mg/kg)/(ng/ml)/h
Cmax [3, 10]: 0.744 ng/mL and 0.604 ng/mL and 0.555 ng/mL and 0.577 ng/mL
Lambda_z [3, 10]: 0.00809 h⁻¹ and 0.008925 h⁻¹
MRT 0-inf_obs [3, 10]: 127.3 h and 114.4 h
Tmax [3, 10]: 0.25 h (2×) and 1 h and 2 h
Vz/F_obs [3, 10]: 25.51 (mg/kg)/(ng/ml) and 23.79 (mg/kg)/(ng/ml)
t1/2 [3, 10]: 85.68 h and 77.67 h
AUC 0-inf_obs [3, 11]: 6.459 ng·h/mL
AUC 0-t [3, 11]: 2.846 ng·h/mL
AUMC 0-inf_obs [3, 11]: 13.69 ng/ml * h^2
Cl/F_obs [3, 11]: 1.548 (mg/kg)/(ng/ml)/h
Cmax [3, 11]: 1.615 ng/mL
Lambda_z [3, 11]: 0.5257 h⁻¹
MRT 0-inf_obs [3, 11]: 2.119 h
Tlag [3, 11]: 0 h
Tmax [3, 11]: 0.8125 h
Vz/F_obs [3, 11]: 2.945 (mg/kg)/(ng/ml)
t1/2 [3, 11]: 1.319 h
AUC 0-inf_obs [3, 12]: 6.459 ng·h/mL
AUC 0-t [3, 12]: 2.8 ± 1.9 ng·h/mL
AUMC 0-inf_obs [3, 12]: 13.69 ng/ml * h^2
Cl/F_obs [3, 12]: 1.548 (mg/kg)/(ng/ml)/h
Cmax [3, 12]: 1.6 ± 0.5 ng/mL
Lambda_z [3, 12]: 0.5257 h⁻¹
MRT 0-inf_obs [3, 12]: 2.119 h
Tlag [3, 12]: 0 ± 0 h
Tmax [3, 12]: 0.8 ± 0.4 h
Vz/F_obs [3, 12]: 2.945 (mg/kg)/(ng/ml)
t1/2 [3, 12]: 1.319 h
AUC 0-inf_obs [3, 13]: 6.459 ng·h/mL
AUMC 0-inf_obs [3, 13]: 13.69 ng/ml * h^2
Cl/F_obs [3, 13]: 1.548 (mg/kg)/(ng/ml)/h
Lambda_z [3, 13]: 0.5257 h⁻¹
MRT 0-inf_obs [3, 13]: 2.119 h
Tlag [3, 13]: 0 h
Vz/F_obs [3, 13]: 2.945 (mg/kg)/(ng/ml)
t1/2 [3, 13]: 1.319 h
AUC 0-t [3, 15]: 5.619 ng·h/mL and 2.381 ng·h/mL and 1.498 ng·h/mL and 1.885 ng·h/mL
Cmax [3, 15]: 2.18 ng/mL and 1.89 ng/mL and 1.01 ng/mL and 1.38 ng/mL
Tmax [3, 15]: 0.25 h and 1 h (3×)
Abs. Quotient [4]: 0.50
Caco-2 Cells Permeability Recovery Rate [4, 14]: 84%
Caco-2 Cells Permeability Recovery Rate ([4]; −GF120918, 10 μM compound): 84%
